Assay results published in US20260144252A1, “BROMINE- OR IODINE-PARA-SUBSTITUTED [(1,5-DIPHENYL-1H-1,2,4-TRIAZOL-3-YL)OXY]ACETIC ACID DERIVATIVES AND THEIR SALTS, AGENTS FOR PROTECTING USEFUL PLANTS OR CROP PLANTS COMPRISING THEM, METHODS FOR PRODUCING THEM AND THEIR USE AS SAFENERS” (Bayer Aktiengesellschaft, priority 2022, published 2026).

Tests used:
Format in all cases: in vivo
[1] = system: summer wheat (TRZAS, cv. Triso); test: Reduction of damage by mesosulfuron-methyl on summer wheat (greenhouse, post-emergence safener test); parameters: key: 0: no reduction in damage (appearance corresponding to the herbicide control); 1: slight reduction in damage; 2: distinct reduction in damage; 3: significant reduction in damage; 4: complete reduction in damage (appearance corresponding to the untreated control); conditions: mesosulfuron-methyl 40 g/ha, visual, 12-13 days after application
Description: (§1) The seeds of the crop plants to be treated were laid out in soil in plastic pots (diameter ˜4 cm), covered with soil and grown in a greenhouse under good conditions for germination and growth. The trial plants were treated at the early leaf stage (BBCH10-BBCH12). In the course of this, the inventive compounds of the general formula (I) formulated in the form of wettable powders (WP) were sprayed onto the above-ground parts of the plants as an aqueous suspension with a water application rate corresponding to 800 l/ha with addition of wetting agent (Mero, 0.2%) in the specified dose. This was followed by the application of the herbicide. For this purpose, mesosulfuron-methyl, formulated in the form of water-dispersible granules (WG), was sprayed onto the above-ground parts of the plants in the form of an aqueous dispersion with a water application rate corresponding to 800 l/ha with addition of wetting agent (Biopower, 1 l/ha) in a dose of 40 g/ha. The dose of the herbicide was chosen here such that it causes average, visually clearly apparent damage (50-60%) compared to untreated crop plants at the evaluation time on a control group of crop plants without safener treatment that were included in the same trial. After application, the plants were cultivated under good growth conditions in a greenhouse. 12-13 days after application, the efficacy of the test compounds was assessed visually. For this purpose, the appearance of the plants treated with the test compound and herbicide was compared to the corresponding herbicide controls (without safener; with clearly visible damage) and the untreated controls (without damage). The damage-reducing effect of the test compounds was expressed here separately for 2 repeats in graded efficacy codes according to the following scheme: • 0: no reduction in damage (appearance corresponding to the herbicide control) • 1: slight reduction in damage • 2: distinct reduction in damage • 3: significant reduction in damage • 4: complete reduction in damage (appearance corresponding to the untreated control)

[2] = system: summer barley (HORVS, cv. Quench); test: Reduction of damage by mesosulfuron-methyl on summer barley (greenhouse, post-emergence safener test); parameters: key: 0: no reduction in damage (appearance corresponding to the herbicide control); 1: slight reduction in damage; 2: distinct reduction in damage; 3: significant reduction in damage; 4: complete reduction in damage (appearance corresponding to the untreated control); conditions: safener 100 g/ha, mesosulfuron-methyl 40 g/ha, visual, 12-13 days after application
Description: as §1

[3] = system: durum wheat (TRZDU; cv. Joyau); test: Comparative herbicide/safener combination test, damage by mesosulfuron-methyl + iodosulfuron-methyl-sodium; conditions: safener 20 g a.i./ha, damage without safener 20%
Description: (§2) The seeds of the crop plants to be treated were laid out in soil in wood fiber pots (diameter ˜7 cm), covered with soil and grown in a greenhouse under good conditions for germination and growth. The trial plants were treated at the early leaf stage (BBCH11-12). For this purpose, the herbicides and safeners used were formulated as wettable powders (WP), mixed in accordance with the dose specified in each case, and sprayed onto the above-ground parts of the plants as an aqueous suspension at a water application rate corresponding to 300 l/ha with addition of wetting agent (Biopower, 0.2%). The herbicidal effects were created using a mixture of mesosulfuron-methyl (40 g a.i./ha) and iodosulfuron-methyl-sodium (8 g a.i./ha). The total herbicide dose was chosen here such that it causes average, visually clearly apparent damage (min. 20%, max. 60%) compared to untreated crop plants at the evaluation time on a control group of crop plants without safener treatment that were included in the same trial. After application, the plants were cultivated under good growth conditions in a greenhouse. 20 days after application, the herbicide damage was assessed visually. The damage was assessed visually on a scale of 0-100% by comparison with untreated control plants, and averaged over 2 repeats per treatment.

[4] = system: summer barley (HORVS; cv. Quench); test: as above; conditions: safener 20 g a.i./ha, damage without safener 50%
Description: as §2

[5] = system: winter barley (HORVW; cv. Zzoom); test: as above; conditions: safener 20 g a.i./ha, damage without safener 55%
Description: as §2

[6] = mesosulfuron-methyl 40 + iodosulfuron-methyl-sodium 8 g a.i./ha, 20 days after application

SMILES	Efficacy of the safener [Efficacy Code] ([1]; safener 100 g/ha)	Efficacy of the safener [Efficacy Code] ([1]; safener 500 g/ha)	Efficacy of the safener [Efficacy Code] [2]	Reduction in damage by safener (difference) [3]	Reduction in damage by safener (in %) [3] [%]	Damage to crop plant by herbicide treatment WITH SAFENER [3, 6] [%]	Reduction in damage by safener (difference) [4]	Reduction in damage by safener (in %) [4] [%]	Damage to crop plant by herbicide treatment WITH SAFENER [4, 6] [%]	Reduction in damage by safener (difference) [5]	Reduction in damage by safener (in %) [5] [%]	Damage to crop plant by herbicide treatment WITH SAFENER [5, 6] [%]
CCOC(=O)COc1nc(-c2ccc(F)cc2F)n(-c2ccc(Br)cc2F)n1 [I.41-1]	2	2	3									
COC(=O)CCOC(=O)COc1nc(-c2ccc(F)cc2F)n(-c2ccc(Br)cc2F)n1 [I.61-1]			2									
O=C(COc1nc(-c2ccc(F)cc2F)n(-c2ccc(Br)cc2F)n1)OCC1CCOC1 (centres unmarked) [I.63-1]			2									
COCCOC(=O)COc1nc(-c2ccc(F)cc2F)n(-c2ccc(Br)cc2F)n1 [I.67-1]	2	3	3	20	100	0	50	100	0	45	82	10
